According to paper PMC9945865, “Anticancer evaluation of new organometallic ruthenium(II) flavone complexes” (RSC Medicinal Chemistry, 2022):

How the values were obtained:
[1] = Temperature dependent UV-vis stability of the complexes; format: physicochemical; design: key to Δλ260: change in absorbance at 260 nm (absorbance units); conditions: for λ260 (absorbance at 260 nm) / UV-vis stability profile: 0.1% DMSO/ddH2O; for UV-vis stability profile: temperature increments 20-80 °C, 6 h time interval
Procedure: Wavelength (nm) Wavelength (nm)
Figure 3. Temperature dependant UV-VIS spectra of (A) 1Ru and (B) 2Ru in 0.1%DMSO/ddH2O solution recorded
over a 6 h time interval.
Table 1. λ260a and Δ λ260b of complexes 1Ru and 2Ru at 20 °C – 80 °C

MCF-7 [2] = assay: Wound healing (migration) 24 h scratch assay; format: cell-based, human
Procedure: (§1) Malignant cell migration is essential for tumour invasion and metastasis.[1] Thus, the ability of the synthetic flavones (1 and 2) and their Ru(II) metal complexes (1Ru and 2Ru) to inhibit the migration of breast cancer cells (MCF-7 and MDA-MB-231) was assessed by an in vitro 24 h scratch assay. Low, sub-cytotoxic concentrations of 1, 10 and 20 μM were used in this evaluation.
(§2) MCF-7 or MDA-MB-231 cells were seeded in 12-well plates at 2 × 10^5 or 1 × 10^5 cells per mL, respectively, and cultured until 70–80% confluency. Afterwards, they were serum-starved (0% serum) for 24 h to inactivate the cell proliferation. A scratch was performed on the cell monolayers using a 200 μL pipette tip. Cells were then washed twice with PBS and treated with complete medium and one of the synthesized derivatives at 1, 10 or 20 μM. […] Images of the scratches were taken immediately after performing the scratch (t = 0 h) and at 24 h (t = 24 h). The area not covered by the cells was quantified using ImageJ software. % of wound closure was calculated using the following equation:100 × ((Area of scratch at t0 − Area of scratch at t24)/Area of scratch at t0)

MDA-MB-231 [3] = assay: Wound healing (migration) 24 h scratch assay; format: cell-based, human; conditions: for rise in compound 2's migration inhibition activity upon metal coordination: p < 0.05
Procedure: as §1, §2

MCF-7 [4] = assay: Cell viability, 72 h MTT assay; format: cell-based, human; conditions: MCF-7, 72 h MTT, mean ± SEM, n = 3
Procedure: (§3) The unique chemical features and coordination geometries of metal ions can add several additional binding interactions that can potentially enhance their anticancer properties for example by allowing intercalation and exploitation of their redox potential.[24] […] In that context, coordination of derivative (2) with a Ru(II) metal ligand is a promising approach to further improve its antiproliferative activity.
(§4) MCF-7 and MDA-MB-231 cells were seeded at a density of 4 × 10^4 and 2 × 10^4 cells per mL, respectively, into 96 well plates and incubated to allow the attachment for 24 h. After 24 h, the cells were treated with one of the synthesised derivatives at range of concentrations (0–100 μM) for 67 h. After 67 h, 20 μL of MTT (5 mg mL^−1) solution in PBS was added to each well and the cells were incubated for 5 h. The purple crystals formed were dissolved in 100 μL of DMSO and the plates were read at 560 nm using a SPECTRA max UV spectrometer (Bio-Rad). The data represented are the mean of the three individual experiments.

MDA-MB-231 [5] = assay: Cell viability, 72 h MTT assay; format: cell-based, human; conditions: MDA-MB-231, 72 h MTT, mean ± SEM, n = 3
Procedure: as §3, §4

HUVEC cells = assay: Cytotoxicity on HUVECs, trypan blue exclusion assay; format: cell-based, human; conditions: 40 μM, 24 h, % of control, p > 0.05 vs control
Procedure: The biocompatibility of flavones (1 and 2)[30] alongside their ruthenium(II) metal complexes (1Ru and 2Ru) with HUVEC cells was established using the trypan blue exclusion assay. A concentration four times higher (i.e. 40 μM) than the highest concentration used for the tube formation antiangiogenic evaluation study (i.e. 10 μM) was selected for this cytotoxic assay.
Cytotoxic activity of treatments on HUVECs using trypan blue exclusion assay.[55] HUVECs were seeded in 96 well plates at 1 × 10^5 cells per mL and cultured for 24 h. Cells were then treated with either luteolin, the synthesised derivatives at 40 μM or culture medium (control) for 24 h. After 24 h, solutions were removed and cells washed with 100 μL PBS followed by the addition of 50 μL trypsin–EDTA and incubation for 5 min to detach the cells. 50 μL of EGM-2 media was added to the wells. 50 μL aliquots of the cell suspension were mixed with equal volume of trypan blue (TB) 0.2% v/v (prepared from 0.4% TB diluted with PBS) then the cells were counted using a haemocytometer. Number of viable and dead cells were counted manually and % cell viability of each treatment was expressed as % of control using the equation:% Cell Viability = (Cell viability in treatment/Cell viability in control) × 100where cell viability was calculated as follows:Cell Viability = Number of viable cells/Total number of cells(viable and dead).

SMILES	Δλ260 ([1]; 20 °C (baseline))	λ260 (absorbance at 260 nm) ([1]; 20 °C)	Δλ260 ([1]; 40 °C minus 20 °C)	λ260 (absorbance at 260 nm) ([1]; 40 °C)	Δλ260 ([1]; 60 °C minus 20 °C)	λ260 (absorbance at 260 nm) ([1]; 60 °C)	Δλ260 ([1]; 80 °C minus 20 °C)	λ260 (absorbance at 260 nm) ([1]; 80 °C)	UV-vis stability profile [1]	migration inhibition (MCF-7 [2]; MCF-7, 1 μM)	migration inhibition (MCF-7 [2]; MCF-7, 10 μM)	migration inhibition (MCF-7 [2]; MCF-7, 20 μM)	IC50 (MCF-7 [4])	IC50 (MDA-MB-231 [5])	Cell viability of HUVECs (HUVEC cells)	further results
Cc1ccc(C(C)C)cc1.O=c1cc(-c2ccc(Cl)cc2)oc2cc(O)cc([O-])c12.[Cl-].[Ru+2] [1Ru, chlorido [(5-oxo-κO)-7-hydroxy-2-(4′-chlorophenyl)-4H-chromen-4-onato-κO] (η^6-p-cymene)ruthenium(II)]	0	0.0435	0.00072	0.04422	0.00174	0.04525	0.00388	0.04738	sufficient stability	50%	42%	41%	66.2 ± 5 µM	> 100 µM	~100%	effect on the migration (MDA-MB-231 [3]; MDA-MB-231, 1, 10, 20 μM, 24 h): neither showed any effect
Cc1ccc(C(C)C)cc1.[Cl-].[O-]c1cc(O)cc2oc(-c3ccc(Cl)cc3)cc(=S)c12.[Ru+2] [2Ru, chlorido [(5-oxo-κO)-7-hydroxy-2-(4′-chlorophenyl)-4H-chromen-4-thionato-κO] (η^6-p-cymene)ruthenium(II)]	0	0.03108	0.0013	0.02973	0.0021	0.02902	0.0028	0.02832	sufficient stability	52%	49%	55%	> 100 µM	> 100 µM	~100%	migration inhibition (MDA-MB-231 [3]; MDA-MB-231, 1 μM, 24 h): 47%; rise in compound 2's migration inhibition activity upon metal coordination (MDA-MB-231 [3]; MDA-MB-231, 1 μM): 4%; migration inhibition (MDA-MB-231 [3]; MDA-MB-231, 10 μM, 24 h): 44%; migration inhibition (MDA-MB-231 [3]; MDA-MB-231, 20 μM, 24 h): 36%; rise in compound 2's migration inhibition activity upon metal coordination (MDA-MB-231 [3]; MDA-MB-231, 20 μM): 7%
